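Following 48 hours of exposure in 96-well plates, responses at five concentrations were used to interpolate endpoints linearly. TGI: total growth inhibition.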
Experiments:
Assay in all cases: growth of human tumour cells (NCI), 48 h
OVCAR-4 ovarian = system: OVCAR-4 ovarian
EKVX NSCLC = system: EKVX NSCLC
SNB-78 CNS = system: SNB-78 CNS
NCI-H226 lung = system: NCI-H226 lung
HOP-62 NSCLC = system: HOP-62 NSCLC
XF 498 CNS = system: XF 498 CNS
SN12C renal = system: SN12C renal
A549 NSCLC = system: A549 NSCLC
U251 CNS = system: U251 CNS
NCI-H460 lung = system: NCI-H460 lung
NCI-H522 lung = system: NCI-H522 lung
SK-OV-3 ovarian = system: SK-OV-3 ovarian
UACC-257 melanoma = system: UACC-257 melanoma
COLO 205 colon = system: COLO 205 colon
MALME-3M melanoma = system: MALME-3M melanoma
OVCAR-5 ovarian = system: OVCAR-5 ovarian
HT29 colon = system: HT29 colon
DLD-1 colon = system: DLD-1 colon
SNB-75 CNS = system: SNB-75 CNS
SNB-19 CNS = system: SNB-19 CNS
UO-31 renal = system: UO-31 renal
HL-60(TB) leukemia = system: HL-60(TB) leukemia
RXF 393 renal = system: RXF 393 renal
SK-MEL-28 melanoma = system: SK-MEL-28 melanoma
KM20L2 colon = system: KM20L2 colon
IGROV1 ovarian = system: IGROV1 ovarian
LOX IMVI melanoma = system: LOX IMVI melanoma
HCC-2998 colon = system: HCC-2998 colon
ACHN renal = system: ACHN renal
OVCAR-3 ovarian = system: OVCAR-3 ovarian
KM12 colon = system: KM12 colon
SF-539 CNS = system: SF-539 CNS
SF-295 CNS = system: SF-295 CNS
SK-MEL-2 melanoma = system: SK-MEL-2 melanoma
NCI-H23 lung = system: NCI-H23 lung
HCT-15 colon = system: HCT-15 colon
OVCAR-8 ovarian = system: OVCAR-8 ovarian
HOP-18 NSCLC = system: HOP-18 NSCLC
TK-10 renal = system: TK-10 renal
UACC-62 melanoma = system: UACC-62 melanoma
HCT-116 colon = system: HCT-116 colon
M19-MEL melanoma = system: M19-MEL melanoma
M14 melanoma = system: M14 melanoma
K-562 leukemia = system: K-562 leukemia
SF-268 CNS = system: SF-268 CNS
RPMI-8226 leukemia = system: RPMI-8226 leukemia
786-0 renal = system: 786-0 renal
MOLT-4 leukemia = system: MOLT-4 leukemia
SW-620 colon = system: SW-620 colon
A498 renal = system: A498 renal
CCRF-CEM leukemia = system: CCRF-CEM leukemia
CAKI-1 renal = system: CAKI-1 renal
LXFL 529 NSCLC = system: LXFL 529 NSCLC
HOP-92 NSCLC = system: HOP-92 NSCLC
SK-MEL-5 melanoma = system: SK-MEL-5 melanoma
SR leukemia = system: SR leukemia
DMS 273 small cell lung = system: DMS 273 small cell lung
DMS 114 small cell lung = system: DMS 114 small cell lung

Question: How did the TGI (OVCAR-4 ovarian) turn out when `COc1ccc2cc3[n+](cc2c1O)CCc1cc2c(cc1-3)OCO2` was run?
Answer: > 100 µM

Question: And the TGI (EKVX NSCLC)?
Answer: > 100 µM

Question: And the TGI (SNB-78 CNS)?
Answer: > 100 µM

Question: And the TGI (NCI-H226 lung)?
Answer: > 100 µM

Question: What about the TGI (HOP-62 NSCLC) of the same compound?
Answer: > 100 µM

Question: And the TGI (XF 498 CNS)?
Answer: > 100 µM

Question: What about the TGI (SN12C renal) of the same compound?
Answer: > 100 µM

Question: What about the TGI (A549 NSCLC) of the same compound?
Answer: > 100 µM

Question: And the TGI (U251 CNS)?
Answer: > 100 µM

Question: And the TGI (NCI-H460 lung)?
Answer: > 100 µM

Question: What about the TGI (NCI-H522 lung) of the same compound?
Answer: > 100 µM

Question: And the TGI (SK-OV-3 ovarian)?
Answer: > 100 µM

Question: What about the TGI (UACC-257 melanoma) of the same compound?
Answer: > 100 µM

Question: And the TGI (COLO 205 colon)?
Answer: > 100 µM

Question: And the TGI (MALME-3M melanoma)?
Answer: > 100 µM

Question: What about the TGI (OVCAR-5 ovarian) of the same compound?
Answer: > 100 µM

Question: And the TGI (HT29 colon)?
Answer: > 100 µM

Question: And the TGI (DLD-1 colon)?
Answer: > 100 µM

Question: And the TGI (SNB-75 CNS)?
Answer: > 100 µM

Question: What about the TGI (SNB-19 CNS) of the same compound?
Answer: > 100 µM

Question: What about the TGI (UO-31 renal) of the same compound?
Answer: > 100 µM

Question: And the TGI (HL-60(TB) leukemia)?
Answer: > 100 µM

Question: And the TGI (RXF 393 renal)?
Answer: > 100 µM

Question: And the TGI (SK-MEL-28 melanoma)?
Answer: > 100 µM

Question: And the TGI (KM20L2 colon)?
Answer: > 100 µM

Question: And the TGI (IGROV1 ovarian)?
Answer: > 100 µM

Question: And the TGI (LOX IMVI melanoma)?
Answer: > 100 µM

Question: And the TGI (HCC-2998 colon)?
Answer: > 100 µM

Question: And the TGI (ACHN renal)?
Answer: > 100 µM

Question: And the TGI (OVCAR-3 ovarian)?
Answer: > 100 µM

Question: And the TGI (KM12 colon)?
Answer: > 100 µM

Question: What about the TGI (SF-539 CNS) of the same compound?
Answer: > 100 µM

Question: And the TGI (SF-295 CNS)?
Answer: > 100 µM

Question: What about the TGI (SK-MEL-2 melanoma) of the same compound?
Answer: > 100 µM

Question: What about the TGI (NCI-H23 lung) of the same compound?
Answer: > 100 µM

Question: What about the TGI (HCT-15 colon) of the same compound?
Answer: > 100 µM

Question: What about the TGI (OVCAR-8 ovarian) of the same compound?
Answer: > 100 µM

Question: And the TGI (HOP-18 NSCLC)?
Answer: > 100 µM

Question: What about the TGI (TK-10 renal) of the same compound?
Answer: > 100 µM

Question: What about the TGI (UACC-62 melanoma) of the same compound?
Answer: > 100 µM

Question: What about the TGI (HCT-116 colon) of the same compound?
Answer: > 100 µM

Question: What about the TGI (M19-MEL melanoma) of the same compound?
Answer: > 100 µM

Question: What about the TGI (M14 melanoma) of the same compound?
Answer: > 100 µM

Question: What about the TGI (K-562 leukemia) of the same compound?
Answer: > 100 µM

Question: And the TGI (SF-268 CNS)?
Answer: > 100 µM

Question: And the TGI (RPMI-8226 leukemia)?
Answer: > 100 µM

Question: And the TGI (786-0 renal)?
Answer: > 100 µM

Question: What about the TGI (MOLT-4 leukemia) of the same compound?
Answer: > 100 µM

Question: And the TGI (SW-620 colon)?
Answer: > 100 µM

Question: And the TGI (A498 renal)?
Answer: > 100 µM

Question: What about the TGI (CCRF-CEM leukemia) of the same compound?
Answer: > 100 µM

Question: Which results are given for `CCC(=C(C#N)C#N)c1cc(OC)c(OC)c(OC)c1`?
Answer: TGI (OVCAR-4 ovarian): > 100 µM; TGI (CAKI-1 renal): > 100 µM; TGI (EKVX NSCLC): > 100 µM; TGI (NCI-H226 lung): > 100 µM; TGI (HOP-62 NSCLC): > 100 µM; TGI (XF 498 CNS): > 100 µM; TGI (SN12C renal): > 100 µM; TGI (A549 NSCLC): > 100 µM; TGI (U251 CNS): > 100 µM; TGI (LXFL 529 NSCLC): > 100 µM; TGI (HOP-92 NSCLC): > 100 µM; TGI (NCI-H460 lung): > 100 µM; TGI (NCI-H522 lung): > 100 µM; TGI (SK-OV-3 ovarian): > 100 µM; TGI (SK-MEL-5 melanoma): > 100 µM; TGI (COLO 205 colon): > 100 µM; TGI (MALME-3M melanoma): > 100 µM; TGI (SR leukemia): > 100 µM; TGI (OVCAR-5 ovarian): > 100 µM; TGI (HT29 colon): > 100 µM; TGI (DLD-1 colon): > 100 µM; TGI (SNB-19 CNS): > 100 µM; TGI (UO-31 renal): > 100 µM; TGI (HL-60(TB) leukemia): 44.5 µM; TGI (RXF 393 renal): > 100 µM; TGI (SK-MEL-28 melanoma): > 100 µM; TGI (KM20L2 colon): > 100 µM; TGI (IGROV1 ovarian): > 100 µM; TGI (LOX IMVI melanoma): > 100 µM; TGI (HCC-2998 colon): > 100 µM; TGI (ACHN renal): > 100 µM; TGI (OVCAR-3 ovarian): > 100 µM; TGI (KM12 colon): > 100 µM; TGI (SF-539 CNS): > 100 µM; TGI (DMS 273 small cell lung): > 100 µM; TGI (SK-MEL-2 melanoma): > 100 µM; TGI (NCI-H23 lung): > 100 µM; TGI (HCT-15 colon): > 100 µM; TGI (OVCAR-8 ovarian): > 100 µM; TGI (HOP-18 NSCLC): > 100 µM; TGI (DMS 114 small cell lung): > 100 µM; TGI (TK-10 renal): > 100 µM; TGI (UACC-62 melanoma): > 100 µM; TGI (HCT-116 colon): > 100 µM; TGI (M19-MEL melanoma): > 100 µM; TGI (M14 melanoma): > 100 µM; TGI (K-562 leukemia): > 100 µM; TGI (SF-268 CNS): > 100 µM; TGI (RPMI-8226 leukemia): 35.6 µM; TGI (MOLT-4 leukemia): > 100 µM; TGI (SW-620 colon): > 100 µM; TGI (CCRF-CEM leukemia): > 100 µM

Question: What does the source list for `NC(=O)C1(c2ccccc2)Nc2ccccc2S1` (configuration not stated)?
Answer: TGI (CAKI-1 renal): > 100 µM; TGI (EKVX NSCLC): > 100 µM; TGI (NCI-H226 lung): > 100 µM; TGI (HOP-62 NSCLC): > 100 µM; TGI (XF 498 CNS): > 100 µM; TGI (SN12C renal): > 100 µM; TGI (A549 NSCLC): > 100 µM; TGI (U251 CNS): > 100 µM; TGI (LXFL 529 NSCLC): > 100 µM; TGI (NCI-H460 lung): > 100 µM; TGI (NCI-H522 lung): > 100 µM; TGI (SK-OV-3 ovarian): > 100 µM; TGI (SK-MEL-5 melanoma): > 100 µM; TGI (COLO 205 colon): > 100 µM; TGI (MALME-3M melanoma): > 100 µM; TGI (SR leukemia): > 100 µM; TGI (OVCAR-5 ovarian): > 100 µM; TGI (HT29 colon): > 100 µM; TGI (DLD-1 colon): > 100 µM; TGI (SNB-19 CNS): > 100 µM; TGI (UO-31 renal): > 100 µM; TGI (HL-60(TB) leukemia): > 100 µM; TGI (RXF 393 renal): > 100 µM; TGI (SK-MEL-28 melanoma): > 100 µM; TGI (KM20L2 colon): > 100 µM; TGI (LOX IMVI melanoma): > 100 µM; TGI (HCC-2998 colon): > 100 µM; TGI (ACHN renal): > 100 µM; TGI (OVCAR-3 ovarian): > 100 µM; TGI (KM12 colon): > 100 µM; TGI (SF-539 CNS): > 100 µM; TGI (DMS 273 small cell lung): > 100 µM; TGI (SK-MEL-2 melanoma): > 100 µM; TGI (NCI-H23 lung): > 100 µM; TGI (HCT-15 colon): > 100 µM; TGI (OVCAR-8 ovarian): > 100 µM; TGI (HOP-18 NSCLC): > 100 µM; TGI (DMS 114 small cell lung): > 100 µM; TGI (TK-10 renal): > 100 µM; TGI (UACC-62 melanoma): > 100 µM; TGI (HCT-116 colon): > 100 µM; TGI (M19-MEL melanoma): > 100 µM; TGI (M14 melanoma): > 100 µM; TGI (K-562 leukemia): > 100 µM; TGI (SF-268 CNS): > 100 µM; TGI (RPMI-8226 leukemia): > 100 µM; TGI (MOLT-4 leukemia): > 100 µM; TGI (SW-620 colon): > 100 µM; TGI (CCRF-CEM leukemia): > 100 µM

From PubChem BioAssay (NCI)
